Assay [1] concerns the target T1, human GLP-1 receptor (hGLP-1 R) (Homo sapiens, UniProt P43220).
T1 construct: expressed in transfected cells; host or cells: HEK-293
Kind of assay: cAMP response (HTRF) of HEK-293 cells stably expressing human GLP-1 receptor. In kind it is cell-based. The settings on record: Table 4. As for the experimental part: (§1) cAMP content of cells was determined using a kit from Cisbio Corp. (cat. no. 62AM4PEC) based on HTRF (Homogenous Time Resolved Fluorescence). For preparation, cells were split into T175 culture flasks and grown overnight to near confluency in medium (DMEM/10% FBS). Medium was then removed and cells washed with PBS lacking calcium and magnesium, followed by proteinase treatment with accutase (Sigma-Aldrich cat. no. A6964). Detached cells were washed and resuspended in assay buffer (1×HBSS; 20 mM HEPES, 0.1% BSA, 2 mM IBMX) and cellular density determined. They were then diluted to 400000 cells/ml and 25 μl-aliquots dispensed into the wells of 96-well plates. For measurement, 25 μl of test compound in assay buffer was added to the wells, followed by incubation for 30 minutes at room temperature. After addition of HTRF reagents diluted in lysis buffer (kit components), the plates were incubated for 1 hr, followed by measurement of the fluorescence ratio at 665/620 nm. In vitro potency of agonists was quantified by determining the concentrations that caused 50% activation of maximal response (EC50).

The target of assay [2] is T2, human glucagon receptor (hGLUC R) (Homo sapiens, UniProt P47871).
T2 construct: expressed in transfected cells; host or cells: HEK-293
The assay can be described thus: cAMP response (HTRF) of HEK-293 cells stably expressing human glucagon receptor. In kind it is cell-based. To be noted: Table 4; read-out: EC50 hGLUC R. On the procedure:
as §1, with “temperature.” for “temperature. After addition of HTRF reagents diluted in lysis buffer (kit components), the plates were incubated for 1 hr, followed by measurement of the fluorescence ratio at 665/620 nm. In vitro potency of agonists was quantified by determining the concentrations that caused 50% activation of maximal response (EC50).”

Structures are written as SMILES. Non-standard residues stand in square brackets, D forms with d. Residues, ends and D or L forms follow the SMILES beside them. Ala(4-thiazolyl) = N[C@@H](Cc1cscn1)C(=O)O; 1Nal = N[C@@H](Cc1cccc2ccccc12)C(=O)O; Phg = N[C@H](C(=O)O)c1ccccc1; Nle = CCCC[C@H](N)C(=O)O

T1 sequence (P43220 24-463): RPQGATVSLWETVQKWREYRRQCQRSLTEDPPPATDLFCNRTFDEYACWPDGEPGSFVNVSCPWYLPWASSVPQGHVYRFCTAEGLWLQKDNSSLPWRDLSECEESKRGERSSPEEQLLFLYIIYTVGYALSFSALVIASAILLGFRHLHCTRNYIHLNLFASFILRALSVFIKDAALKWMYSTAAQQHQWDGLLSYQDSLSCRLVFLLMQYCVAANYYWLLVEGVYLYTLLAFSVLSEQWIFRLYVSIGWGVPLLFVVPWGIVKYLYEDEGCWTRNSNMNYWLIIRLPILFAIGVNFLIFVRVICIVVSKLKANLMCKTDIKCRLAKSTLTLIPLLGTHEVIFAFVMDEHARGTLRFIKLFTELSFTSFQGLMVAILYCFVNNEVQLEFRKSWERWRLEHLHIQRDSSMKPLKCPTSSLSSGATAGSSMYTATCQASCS
T2 sequence (P47871 26-477): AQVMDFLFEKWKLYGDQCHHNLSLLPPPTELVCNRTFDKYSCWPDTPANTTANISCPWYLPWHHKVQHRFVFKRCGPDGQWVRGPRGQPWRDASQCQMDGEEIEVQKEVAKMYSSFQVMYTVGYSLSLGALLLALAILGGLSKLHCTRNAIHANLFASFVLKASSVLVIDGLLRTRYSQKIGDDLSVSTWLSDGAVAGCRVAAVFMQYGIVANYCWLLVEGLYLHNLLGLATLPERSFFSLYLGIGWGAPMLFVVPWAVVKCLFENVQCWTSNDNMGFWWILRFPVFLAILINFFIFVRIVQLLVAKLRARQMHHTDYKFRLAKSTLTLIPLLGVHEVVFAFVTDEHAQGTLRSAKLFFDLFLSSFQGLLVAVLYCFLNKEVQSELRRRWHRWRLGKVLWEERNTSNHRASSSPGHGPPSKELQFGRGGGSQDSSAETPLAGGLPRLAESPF

The EC50 is the concentration that produces a half-maximal response. In the case of `CC[C@H](C)[C@H](NC(=O)[C@H](Cc1ccccc1)NC(=O)[C@H](CCC(=O)O)NC(=O)[C@H](CCC(N)=O)NC(=O)[C@H](C)NC(=O)[C@H](CCCNC(=N)N)NC(=O)[C@H](CCCNC(=N)N)NC(=O)[C@H](CO)NC(=O)[C@H](CCC(=O)O)NC(=O)[C@H](CC(C)C)NC(=O)[C@H](CCC(N)=O)NC(=O)[C@H](CCCCN)NC(=O)[C@H](CO)NC(=O)[C@@H](NC(=O)[C@H](CC(=O)O)NC(=O)[C@H](CO)NC(=O)[C@@H](NC(=O)[C@H](Cc1ccccc1)NC(=O)[C@@H](NC(=O)CNC(=O)[C@H](CCC(N)=O)NC(=O)[C@H](CO)NC(=O)[C@@H](N)Cc1cscn1)[C@@H](C)O)[C@@H](C)O)c1ccccc1)C(=O)N[C@@H](CCC(=O)O)C(=O)N[C@@H](Cc1c[nH]c2ccccc12)C(=O)N[C@@H](CC(C)C)C(=O)N[C@@H](CC(C)C)C(=O)N[C@@H](C)C(=O)N[C@H](C(=O)NCC(=O)N1CCC[C@H]1C(=O)N[C@@H](CCC(=O)O)C(=O)N[C@@H](CO)C(=O)NCC(=O)N[C@@H](C)C(=O)N1CCC[C@H]1C(=O)N1CCC[C@H]1C(=O)N1CCC[C@H]1C(=O)N[C@@H](CO)C(=O)O)[C@@H](C)O` [SEQ ID NO 10, Tza-S-Q-G-T-F-T-S-D-Phg-SKQLESRRAQEFIEWLLATGPESGAPPPS-OH] (H-[Ala(4-thiazolyl)]SQGTFTSD[Phg]SKQLESRRAQEFIEWLLATGPESGAPPPS-OH; N-terminus assumed), the EC50 was determined as 45 nM in assay [1] and 0.006 nM in assay [2].
Turning to `CCCC[C@H](NC(=O)[C@H](CCC(N)=O)NC(=O)[C@H](CCCCN)NC(=O)[C@H](CO)NC(=O)[C@H](CC(C)C)NC(=O)[C@H](CC(=O)O)NC(=O)[C@H](CO)NC(=O)[C@@H](NC(=O)[C@H](Cc1ccccc1)NC(=O)[C@@H](NC(=O)CNC(=O)[C@H](CCC(N)=O)NC(=O)[C@H](CO)NC(=O)[C@@H](N)Cc1cscn1)[C@@H](C)O)[C@@H](C)O)C(=O)N[C@@H](CCC(=O)O)C(=O)N[C@@H](CO)C(=O)N[C@@H](CCCNC(=N)N)C(=O)N[C@@H](CCCNC(=N)N)C(=O)N[C@@H](C)C(=O)N[C@@H](CCC(N)=O)C(=O)N[C@@H](CCC(=O)O)C(=O)N[C@@H](Cc1ccccc1)C(=O)N[C@H](C(=O)N[C@@H](CCC(=O)O)C(=O)N[C@@H](Cc1c[nH]c2ccccc12)C(=O)N[C@@H](CC(C)C)C(=O)N[C@@H](CC(C)C)C(=O)N[C@@H](C)C(=O)N[C@H](C(=O)NCC(=O)N1CCC[C@H]1C(=O)N[C@@H](CCC(=O)O)C(=O)N[C@@H](CO)C(=O)NCC(=O)N[C@@H](C)C(=O)N1CCC[C@H]1C(=O)N1CCC[C@H]1C(=O)N1CCC[C@H]1C(=O)N[C@@H](CO)C(=O)O)[C@@H](C)O)[C@@H](C)CC` [SEQ ID NO 16, Tza-S-Q-G-T-F-T-S-D-L-S-K-Q-Nle-ESRRAQEFIEWLLATGPESGAPPPS-OH] (H-[Ala(4-thiazolyl)]SQGTFTSDLSKQ[Nle]ESRRAQEFIEWLLATGPESGAPPPS-OH; N-terminus assumed), a half-maximal response in assay [1] (EC50) required 19.7 nM.
The same measure, in the same setting: the figure for `CC[C@H](C)[C@H](NC(=O)[C@H](Cc1ccccc1)NC(=O)[C@H](CCC(=O)O)NC(=O)[C@H](CCC(N)=O)NC(=O)[C@H](C)NC(=O)[C@H](CCCNC(=N)N)NC(=O)[C@H](CCCNC(=N)N)NC(=O)[C@H](CO)NC(=O)[C@H](CCC(=O)O)NC(=O)[C@H](CC(C)C)NC(=O)[C@H](CCC(N)=O)NC(=O)[C@H](CCCCN)NC(=O)[C@H](CO)NC(=O)[C@H](Cc1cccc2ccccc12)NC(=O)[C@H](CC(=O)O)NC(=O)[C@H](CO)NC(=O)[C@@H](NC(=O)[C@H](Cc1ccccc1)NC(=O)[C@@H](NC(=O)CNC(=O)[C@H](CCC(N)=O)NC(=O)[C@H](CO)NC(=O)[C@@H](N)Cc1cscn1)[C@@H](C)O)[C@@H](C)O)C(=O)N[C@@H](CCC(=O)O)C(=O)N[C@@H](Cc1c[nH]c2ccccc12)C(=O)N[C@@H](CC(C)C)C(=O)N[C@@H](CC(C)C)C(=O)N[C@@H](C)C(=O)N[C@H](C(=O)NCC(=O)N1CCC[C@H]1C(=O)N[C@@H](CCC(=O)O)C(=O)N[C@@H](CO)C(=O)NCC(=O)N[C@@H](C)C(=O)N1CCC[C@H]1C(=O)N1CCC[C@H]1C(=O)N1CCC[C@H]1C(=O)N[C@@H](CO)C(=O)O)[C@@H](C)O` [SEQ ID NO 11, Tza-S-Q-G-T-F-T-S-D-1Nal-SKQLESRRAQEFIEWLLATGPESGAPPPS-OH] (H-[Ala(4-thiazolyl)]SQGTFTSD[1Nal]SKQLESRRAQEFIEWLLATGPESGAPPPS-OH; N-terminus assumed) is 11.7 nM.
`CC[C@H](C)[C@H](NC(=O)[C@H](Cc1ccccc1)NC(=O)[C@H](CCC(=O)O)NC(=O)[C@H](CCC(N)=O)NC(=O)[C@H](C)NC(=O)[C@H](CCCNC(=N)N)NC(=O)[C@H](CCCNC(=N)N)NC(=O)[C@H](CO)NC(=O)[C@H](CCC(=O)O)NC(=O)[C@H](CC(C)C)NC(=O)[C@H](CCC(N)=O)NC(=O)[C@H](CCCCN)NC(=O)[C@H](CO)NC(=O)[C@@H](NC(=O)[C@H](CC(=O)O)NC(=O)[C@H](CO)NC(=O)[C@@H](NC(=O)[C@H](Cc1ccccc1)NC(=O)[C@@H](NC(=O)CNC(=O)[C@H](CCC(N)=O)NC(=O)[C@H](CO)NC(=O)[C@@H](N)Cc1cscn1)[C@@H](C)O)[C@@H](C)O)[C@@H](C)CC)C(=O)N[C@@H](CCC(=O)O)C(=O)N[C@@H](Cc1c[nH]c2ccccc12)C(=O)N[C@@H](CC(C)C)C(=O)N[C@@H](CC(C)C)C(=O)N[C@@H](C)C(=O)N[C@H](C(=O)NCC(=O)N1CCC[C@H]1C(=O)N[C@@H](CCC(=O)O)C(=O)N[C@@H](CO)C(=O)NCC(=O)N[C@@H](C)C(=O)N1CCC[C@H]1C(=O)N1CCC[C@H]1C(=O)N1CCC[C@H]1C(=O)N[C@@H](CO)C(=O)O)[C@@H](C)O` [SEQ ID NO 8, Tza-SQGTFTSDISKQLESRRAQEFIEWLLATGPESGAPPPS-OH]: the EC50 in assay [1] was 5.8 nM; in assay [2] it was 0.0022 nM.
On the same counts, the results for `CC[C@H](C)[C@H](NC(=O)[C@H](Cc1ccccc1)NC(=O)[C@H](CCC(=O)O)NC(=O)[C@H](CCC(N)=O)NC(=O)[C@H](C)NC(=O)[C@H](CCCNC(=N)N)NC(=O)[C@H](CCCNC(=N)N)NC(=O)[C@H](CO)NC(=O)[C@H](CCC(=O)O)NC(=O)[C@H](CC(C)C)NC(=O)[C@H](CCC(N)=O)NC(=O)[C@H](CCCCN)NC(=O)[C@H](CO)NC(=O)[C@@H](NC(=O)[C@H](CC(=O)O)NC(=O)[C@H](CO)NC(=O)[C@@H](NC(=O)[C@H](Cc1ccccc1)NC(=O)[C@@H](NC(=O)CNC(=O)[C@H](CCC(N)=O)NC(=O)[C@H](CO)NC(=O)[C@@H](N)Cc1cscn1)[C@@H](C)O)[C@@H](C)O)C(C)C)C(=O)N[C@@H](CCC(=O)O)C(=O)N[C@@H](Cc1c[nH]c2ccccc12)C(=O)N[C@@H](CC(C)C)C(=O)N[C@@H](CC(C)C)C(=O)N[C@@H](C)C(=O)N[C@H](C(=O)NCC(=O)N1CCC[C@H]1C(=O)N[C@@H](CCC(=O)O)C(=O)N[C@@H](CO)C(=O)NCC(=O)N[C@@H](C)C(=O)N1CCC[C@H]1C(=O)N1CCC[C@H]1C(=O)N1CCC[C@H]1C(=O)N[C@@H](CO)C(=O)O)[C@@H](C)O` [SEQ ID NO 7, Tza-SQGTFTSDVSKQLESRRAQEFIEWLLATGPESGAPPPS-OH] (H-[Ala(4-thiazolyl)]SQGTFTSDVSKQLESRRAQEFIEWLLATGPESGAPPPS-OH; N-terminus assumed) are 4.19 nM and 0.0024 nM.
As to `CC[C@H](C)[C@H](NC(=O)[C@H](Cc1ccccc1)NC(=O)[C@H](CCC(=O)O)NC(=O)[C@H](CCC(N)=O)NC(=O)[C@H](C)NC(=O)[C@H](CCCNC(=N)N)NC(=O)[C@H](CCCNC(=N)N)NC(=O)[C@H](CO)NC(=O)[C@H](CCC(=O)O)NC(=O)[C@H](CC(C)C)NC(=O)[C@H](CCC(N)=O)NC(=O)[C@H](CCCCN)NC(=O)[C@H](CO)NC(=O)[C@H](CC(C)C)NC(=O)[C@H](CC(=O)O)NC(=O)[C@H](CO)NC(=O)[C@@H](NC(=O)[C@H](Cc1ccccc1)NC(=O)[C@@H](NC(=O)CNC(=O)[C@H](CCC(N)=O)NC(=O)[C@H](CO)NC(=O)[C@@H](N)Cc1cscn1)[C@@H](C)O)[C@@H](C)O)C(=O)N[C@@H](CCC(=O)O)C(=O)N[C@@H](Cc1c[nH]c2ccccc12)C(=O)N[C@@H](CC(C)C)C(=O)N[C@@H](CC(C)C)C(=O)N[C@@H](C)C(=O)NCC(=O)NCC(=O)N1CCC[C@H]1C(=O)N[C@@H](CCC(=O)O)C(=O)N[C@@H](CO)C(=O)NCC(=O)N[C@@H](C)C(=O)N1CCC[C@H]1C(=O)N1CCC[C@H]1C(=O)N1CCC[C@H]1C(=O)N[C@@H](CO)C(=O)O` [SEQ ID NO 4, Tza-SQGTFTSDLSKQLESRRAQEFIEWLLAGGPESGAPPPS-OH] (H-[Ala(4-thiazolyl)]SQGTFTSDLSKQLESRRAQEFIEWLLAGGPESGAPPPS-OH; N-terminus assumed), in assay [1], it took 3.3 nM to reach a half-maximal effect (EC50).

Values taken from US9932381B2, “Exendin-4 derivatives as selective glucagon receptor agonists” (priority 2014, dated 2018).
